Results as given in PubChem BioAssay (NCI).
“And” between values parts separate entries of the source, which are not always exact repeats. Equal entries are not always repeated.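 Briefly, cells in 96-well plates were exposed to five compound concentrations for 48 h, and endpoints were estimated by linear interpolation. The concentration for 50% growth inhibition is given as GI50. TGI marks complete inhibition of growth.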

How the values were obtained:
Test in all cases: growth of human tumour cells (NCI), 48 h
[1] = tested on: SF-295 CNS
[2] = tested on: HOP-62 NSCLC
[3] = tested on: SN12C renal
[4] = tested on: NCI-H522 lung
[5] = tested on: MOLT-4 leukemia
[6] = tested on: HCT-15 colon
[7] = tested on: TK-10 renal
[8] = tested on: SW-620 colon
[9] = tested on: NCI-H23 lung
[10] = tested on: CCRF-CEM leukemia

SMILES	TGI [1] [µM]	TGI [2] [µM]	TGI [3]	TGI [4] [µM]	TGI [5]	TGI [6] [µM]	TGI [7] [µM]	TGI [8]	TGI [9]	TGI [10]	GI50 [1] [µM]	GI50 [2]	GI50 [10]	GI50 [3]	GI50 [4] [µM]	GI50 [5]	GI50 [6] [µM]	GI50 [7] [µM]	GI50 [8]	GI50 [9]
N#CC(C(=O)O)C(c1c(Cl)cccc1Cl)C(C#N)C(=O)O (configuration not stated)	> 100	> 100	> 100 µM	> 100	> 100 µM	> 100	> 100	> 100 µM	> 100 µM											
S=C1SCN(C2CCCCCCCCCCC2)CN1C1CCCCCCCCCCC1	> 100	> 100	> 100 µM	> 100	> 100 µM	> 100	> 100	> 100 µM	> 100 µM	> 100 µM										
C=C1C(=O)O[C@H]2[C@H]1CC/C(Cn1cc(-c3ccsc3)nn1)=C\CC[C@@]1(C)O[C@@H]21	21.5	18.9	7.33 µM	3.17	6.9 µM	2.54	3.16	2.68 µM	4 µM	12.3 µM	9.61	4.9 µM	1.63 µM	2.45 µM	1.39	2.59 µM	1.11	1.52	1.32 µM	1.82 µM
O=C(O)CNC(=O)C1NC(C(F)(F)F)(C(F)(F)F)OC1(C(F)(F)F)C(F)(F)F (configuration not stated)	> 100	> 100	> 100 µM	> 100	> 100 µM	> 100	> 100	> 100 µM	> 100 µM											
CC(=O)OC1(C#N)CC2OC1C1N=NN(C(=O)OC(C)(C)C)C21 (configuration not stated)	> 100	> 100	> 100 µM	> 100	> 100 µM	22.5	> 100	23.1 µM		83.8 µM										
Cc1ccc2c(c1)-c1oc(=O)c(-c3cc4ccccc4oc3=O)cc1C(O)O2 (configuration not stated)	38.2	41.4	45 µM	48.1	74.4 µM	48.8	34.9	33.5 µM	45.8 µM	> 100 µM	16.3	22.9 µM	42.2 µM	19.7 µM	19.4	27.8 µM	23.9	16.3	18.9 µM	23.5 µM
COc1c(N2CCN(CN3C(=O)C(=O)c4ccccc43)C(C)C2)c(F)cc2c(=O)c(C(=O)O)cn(C3CC3)c12 (configuration not stated)	> 100		> 100 µM	> 100	> 100 µM	> 100	68.7	> 100 µM	> 100 µM		> 100			47.3 µM	> 100	36.8 µM	55.8	6.85	33.5 µM	> 100 µM
Cc1ccc(-c2cc(=O)c3cc(C)c(C)c(C(=O)O)c3o2)cc1[N+](=O)[O-]	> 100		> 100 µM	> 100	> 100 µM	> 100	> 100	> 100 µM	> 100 µM	> 100 µM										
C[C@H](C(O)CC(=O)C(C)(C)O)[C@H]1CC[C@@]2(C)[C@@H]3CC[C@H]4C(C)(C)[C@@H](OC5OC(COC6OC(CO)C(O)C(O)C6O)C(O)C(O)C5O)CC[C@]4(C)C3=CC[C@]12C (some centres not stated)	> 100	> 100	> 100 µM	> 100		> 100	> 100	> 100 µM	> 100 µM	> 100 µM										
CCCCCN(CCCCC)C(=O)[C@H](CCC(=O)OCc1ccccc1)NC(=O)c1cc2ccccc2[nH]1	> 100	> 100	> 100 µM	> 100	> 100 µM	> 100		> 100 µM	> 100 µM	> 100 µM										
CC1(C)Oc2ccccc2[N+]([O-])=C1c1ccccc1	> 100	> 100	> 100 µM	> 100	> 100 µM	> 100		> 100 µM	> 100 µM	> 100 µM										
Fc1ccc2c(c1)cc1ccc3cccc4ccc2c1c34	> 100	> 100	> 100 µM	> 100	> 100 µM		> 100	> 100 µM	> 100 µM	> 100 µM										
CCOC(=O)NC(=O)c1cn(C2OC(COC(=O)CCCCCCCCC(=O)OCC3OC(n4cc(C(=O)NC(=O)OCC)c(=O)[nH]c4=O)C4OC(C)(C)OC34)C3OC(C)(C)OC32)c(=O)[nH]c1=O (configuration not stated)	> 100	> 100	> 100 µM		> 100 µM	> 100	> 100	> 100 µM	> 100 µM	> 100 µM										
COC(=O)[C@H](Cc1cn(C)cn1)NC(=O)[C@@H](NC(=O)Nc1cc(C(F)(F)F)cc(C(F)(F)F)c1)C(C)(C)C	> 10	> 10	> 10 µM		> 10 µM	> 10	> 10	> 10 µM	> 10 µM	> 10 µM	> 10	> 10 µM	> 10 µM	> 10 µM		> 10 µM	> 10	> 10	> 10 µM	> 10 µM
CCC(C)(C)NS(=O)(=O)c1ccccc1	> 100	> 100			> 100 µM	> 100	> 100	> 100 µM	> 100 µM	> 100 µM										
CCCCCCC(O)C(O)CCC(O)C1CCC(CCCCC(O)CC2=CC(C)OC2=O)O1 (configuration not stated)	20.1	26	34 µM	22.8	43.9 µM	80.4	> 100	> 100 µM	40.1 µM		0.0305	12.4 µM		16.2 µM		13.4 µM	19.2	22.3	36.5 µM	2.86 µM
CCN(CC)CCOc1ccc(Cc2ccccc2)cc1	31.4	> 100	> 100 µM	> 100		53.9	92.9	42.4 µM	> 100 µM		13.2	32.4 µM		48.8 µM	18.4		15.1	23.3	17.4 µM	33.4 µM

SMILES	TGI [1] [µM]	TGI [2] [µM]	TGI [3]	TGI [4] [µM]	TGI [5]	TGI [6] [µM]	TGI [7] [µM]	TGI [8]	TGI [9]	TGI [10]	GI50 [1] [µM]	GI50 [2]	GI50 [10]	GI50 [3]	GI50 [4] [µM]	GI50 [5]	GI50 [6] [µM]	GI50 [7] [µM]	GI50 [8]	GI50 [9]
CC(=Nc1ccccc1)C1=C(O)C(Cc2ccc(F)cc2)NC1=O (configuration not stated)		> 100	> 100 µM	2.1	> 100 µM	> 100	> 100	> 100 µM	> 100 µM	> 100 µM		0.959 µM	1.81 µM	5.76 µM	0.237	3.18 µM	0.488	2.1	0.432 µM	1.71 µM
COc1ccc(C[C@H]2NC[C@H](O)[C@H]2OC(C)=O)cc1	0.0641	0.193	0.253 µM	0.118	0.0642 µM		0.397	0.15 µM	0.52 µM	0.863 µM										
CCCCCC(=C/c1ccccc1)/C=N/N=C(N)N	3.49	3.31			3.51 µM	5	3.32	3.16 µM	3.12 µM	5.04 µM	1.67	1.63 µM	2 µM			1.53 µM	1.99	1.75	1.52 µM	1.47 µM
CN[C@H]1CC[C@]23C[C@]24CC[C@]2(C)[C@@H]([C@H](C)N(C)C)CC[C@@]2(C)[C@@H]4CC[C@H]3C1(C)C	31.2		29.1 µM	34.1	60.1 µM	25.8	39.3	32.5 µM	35.6 µM	98.8 µM										
CNC(=S)N(C1CCCCC1)C1CCCCC1	> 100	> 100	> 100 µM		> 100 µM	> 100	> 100	> 100 µM	> 100 µM	> 100 µM										
C[C@@]1(O)CCC[C@H]1n1c(=O)c(C(F)F)cc2cnc(NC3CCN(S(C)(=O)=O)CC3)nc21	16.2	> 100	> 100 µM	15.3		56.6	> 100	6.46 µM	6.69 µM	> 100 µM	1.83	2.03 µM	1.5 µM	2.66 µM	2.66		1.74	1.21	0.0891 µM	1.43 µM
COc1cc2c(cc1OC)-c1ncc3cc(OC)c(OC)cc3c1C2	> 50		> 50 µM	> 50	> 50 µM	> 50	> 50	> 50 µM	> 50 µM	> 50 µM	> 50		25.9 µM	> 50 µM	24.5	25.4 µM	> 50	> 50	> 50 µM	> 50 µM
C/C(=N\NS(=O)(=O)c1c(C)cc(C)cc1C)c1ccc[n+]([O-])n1	> 100	> 100	29.2 µM	21	37 µM	28.5		22.3 µM	34 µM	18.2 µM										
CC(C)=CCC/C(C)=C/CC/C(C)=C/C1CCC(=O)C1(C)C (configuration not stated)	33	69.6	30.9 µM	29	41 µM	28.9	> 100		41.1 µM	35.4 µM										
COC(=O)CCCNC(=O)C(=O)c1c(O)c(O)c(C(C)C)c2cc(C)c(-c3c(C)cc4c(C(C)C)c(O)c(O)c(C(=O)C(=O)NCCCC(=O)OC)c4c3O)c(O)c12	5.22	4.21	6.85 µM	1.9		4.45	2.73	5.52 µM	6.03 µM	> 32.5 µM	0.25	0.942 µM	0.331 µM	0.844 µM	0.379		0.587	0.34	0.74 µM	0.363 µM
COC(=O)C1=C(O)c2cc3c(cc2[C@H](c2cc(OC)c(OC)c(OC)c2)C1)OCO3	> 100	> 100	> 100 µM		89.6 µM	> 100	> 100	> 100 µM	> 100 µM	> 100 µM										
CN(C)C1C(=O)C(C(N)=O)=C(O)C2(O)C(=O)C3=C(O)c4c(O)cccc4C(C)(O)C3CC12 (configuration not stated)		> 100	32.5 µM and > 100 µM	> 100	46.5 µM and > 100 µM	> 100	> 100	46.1 µM and > 100 µM	58.5 µM and > 100 µM	57.1 µM and > 100 µM		37.5 µM and > 100 µM	22.8 µM and 67.5 µM	18.4 µM and > 100 µM		23.5 µM and > 100 µM			23.3 µM and > 100 µM	31.4 µM and > 100 µM
COc1c(Cl)[c]([Hg][O]C(C)=O)c(NCC(C)=O)c(OC)[c]1[Hg][O]C(C)=O	45.2	37.3	36.3 µM	4	48.5 µM		27.7	62.4 µM	28.8 µM	34.4 µM	20.2	22.3 µM	10.3 µM	20.8 µM	1.37	17.1 µM		14.3	19.6 µM	11.2 µM
CCC(=O)Nc1ncnc2ncn(C(=O)CC)c12	> 100	> 100	> 100 µM	> 100	> 100 µM	> 100	> 100	> 100 µM	> 100 µM											
[N-]=[N+]=NC1C2CC3CC(C2)CC1C3 (configuration not stated)	> 100	> 100	> 100 µM	> 100	> 100 µM		> 100	> 100 µM	> 100 µM	> 100 µM										
OCCCCCNc1ccnc2cc(Cl)ccc12	> 100	> 100	> 100 µM	> 100	> 100 µM	> 100		> 100 µM	> 100 µM	> 100 µM										
O=c1c(-c2nc3ccccc3[nH]2)cc2ccccc2n1Cc1cn(Cc2ccccc2Cl)nn1			3.75 µM	7.98	> 100 µM		6.65	10.4 µM	24.3 µM	> 100 µM			8.58 µM	1.87 µM	2.24	2.36 µM		2.52	2.87 µM	3.43 µM
